The values that follow come from publication PMC8929351 (Pharmacology Research & Perspectives, 2022).

The test system of series [1] is rat µ receptor. Conditions: cited from earlier work.
Series [2] has as its target human µ receptor wild‐type (WT) (Homo sapiens, UniProt P35372). Kind of series: cell-based. It is filed as cell-based.
Series [3] deals with noradrenaline transporter. Conditions: read-out: EC50 to inhibit noradrenaline transporter; LC neurons; cited from earlier work.
Another series relates to GIRK channels. The following applies: 100 µM; cells clamped at −60 mV; cited from earlier work.
The conditions of series [4]: tapentadol‐related fatality; cited from earlier work.
A further series relates to human µ receptor. The following applies: GTPγS binding; cited from earlier work. For orientation: Binding of GTPγS marks nucleotide exchange on a G protein.
In a further series the target is human µ receptor A6V (Homo sapiens, UniProt P35372, A6V). Kind of series: cell-based. Type of series: cell-based.
Another series concerns the target T1, GIRK1/2 channel (Mus musculus, UniProt P48542+P63250).
T1 sequence (P63250 1-501): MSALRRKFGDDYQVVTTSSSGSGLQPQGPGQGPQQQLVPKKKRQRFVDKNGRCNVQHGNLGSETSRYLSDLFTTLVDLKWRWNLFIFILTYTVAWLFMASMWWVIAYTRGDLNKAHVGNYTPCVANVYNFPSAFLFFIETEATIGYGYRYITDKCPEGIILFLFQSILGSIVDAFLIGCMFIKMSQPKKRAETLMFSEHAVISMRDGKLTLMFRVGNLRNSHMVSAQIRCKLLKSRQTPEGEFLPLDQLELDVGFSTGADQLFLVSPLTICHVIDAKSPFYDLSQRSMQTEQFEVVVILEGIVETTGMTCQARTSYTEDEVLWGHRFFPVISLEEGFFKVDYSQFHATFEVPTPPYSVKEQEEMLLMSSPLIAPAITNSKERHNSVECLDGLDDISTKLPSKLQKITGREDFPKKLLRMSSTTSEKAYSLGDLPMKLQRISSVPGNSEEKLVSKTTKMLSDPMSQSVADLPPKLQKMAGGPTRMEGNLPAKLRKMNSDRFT
T1 sequence (P48542 1-425): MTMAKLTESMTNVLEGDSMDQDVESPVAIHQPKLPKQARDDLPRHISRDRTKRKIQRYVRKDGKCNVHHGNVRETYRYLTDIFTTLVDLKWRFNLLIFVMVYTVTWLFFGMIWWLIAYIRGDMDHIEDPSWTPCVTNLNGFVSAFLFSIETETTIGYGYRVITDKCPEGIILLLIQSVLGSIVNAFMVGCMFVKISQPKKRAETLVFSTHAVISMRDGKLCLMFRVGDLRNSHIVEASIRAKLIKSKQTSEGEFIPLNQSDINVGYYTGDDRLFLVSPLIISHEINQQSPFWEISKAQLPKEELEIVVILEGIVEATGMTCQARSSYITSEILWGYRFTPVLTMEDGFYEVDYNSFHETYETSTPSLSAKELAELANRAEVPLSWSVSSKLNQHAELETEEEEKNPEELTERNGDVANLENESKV
Type of series: cell-based. Conditions: 30 µM tapentadol, AtT20 WT cells.

In a further series the target is human µ receptor N40D (Homo sapiens, UniProt P35372, N40D). Kind of series: cell-based. Type of series: cell-based.
Series [5] relates to rat µ receptor. Conditions: cited from earlier work. This is another data set of the same source.
The next series concerns OPRM1 knock‐out mice. Conditions: dose highly effective in wild‐type mouse; cited from earlier work.
Another series has as its system Somatostatin receptors. Type of series: cell-based, Mouse. Conditions: 30 µM tapentadol; SRIF 100 nM; AtT20 WT cells.

Entries after “also recorded” stand apart in the source; their conditions may differ.

Sequence of human µ receptor wild‐type (WT) (P35372 whole entry): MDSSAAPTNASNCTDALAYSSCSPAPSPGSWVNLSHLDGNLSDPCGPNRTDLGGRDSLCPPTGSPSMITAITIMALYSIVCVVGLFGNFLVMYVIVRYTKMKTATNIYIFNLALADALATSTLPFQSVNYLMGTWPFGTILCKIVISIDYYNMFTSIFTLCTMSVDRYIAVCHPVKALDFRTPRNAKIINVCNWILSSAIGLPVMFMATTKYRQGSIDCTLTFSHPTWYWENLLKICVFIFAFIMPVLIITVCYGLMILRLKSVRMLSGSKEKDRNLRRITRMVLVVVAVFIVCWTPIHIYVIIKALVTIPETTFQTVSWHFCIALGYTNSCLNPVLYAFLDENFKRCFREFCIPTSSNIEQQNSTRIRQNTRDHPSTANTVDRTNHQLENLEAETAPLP
Sequence of human µ receptor N40D (P35372 whole entry N40D): as the sequence (P35372 whole entry) above, with N40D counted along it
Sequence of human µ receptor A6V (P35372 whole entry A6V): as the sequence (P35372 whole entry) above, with A6V counted along it

Turning to `C[C@@H](NC(=O)[C@@H](N)Cc1ccc(O)cc1)C(=O)NCC(=O)N(C)[C@@H](Cc1ccccc1)C(=O)NCCO` [DAMGO, Tyr‐D‐Ala‐Gly‐N‐MePhe‐Gly‐ol acetate], the Operational tau in the series on rat µ receptor [1] is 28.5 ± 1.1. Besides, the “effect to activate the GIRK channel in variants compared to WT” value in [2] is given as “not different”.

For orientation: EC50 means the midpoint of the concentration-response curve. As usually defined, the Kd is the constant that tells how readily two partners part at equilibrium. High values mean a looser complex, low ones a tighter complex. As for `CC[C@@H](c1cccc(O)c1)[C@@H](C)CN(C)C` [Tapentadol], the EC50 in series [3] is 2.3 µM; on rat µ receptor [5] (read-out: EC50 to activate µ receptor, LC neurons), 1.8 µM. In the series on GIRK channels, the “blockage of GIRK channels” value is “no blockage of GIRK channels”. The serum concentration in series [4] was 3.5 to 25 µM. In addition, the in vitro efficacy entry in the series with human µ receptor is recorded as “same efficacy as morphine”. Moreover, the Kd was 4.47 µM on human µ receptor A6V; 3.98 µM on human µ receptor N40D; 3.98 µM in series [2] (pKA, WT, operational (functional) affinity). The “Relative tau (intrinsic efficacy relative to DAMGO)” value at human µ receptor A6V (A6V, AtT20 cells, operational model, β‐CNA 100 nM 20 min, mean ± SEM) was found to be 0.04 ± 0.01; on human µ receptor N40D (N40D, AtT20 cells, operational model, β‐CNA 100 nM 20 min, mean ± SEM), 0.05 ± 0.02; in series [2] (WT, AtT20 cells, operational model, β‐CNA 100 nM 20 min, mean ± SEM), 0.05 ± 0.01. Also, the “effect on response of ML297” value at GIRK1/2 channel was “significant reduction; also recorded: decreased the maximal response”. Also, in the series on rat µ receptor [5] (GIRK currents, rat LC neurons), the intrinsic activity result was “lower intrinsic activity than morphine and oxycodone”. For the same compound, the analgesic effect entry in the series on OPRM1 knock‐out mice is given as “reduced yet significant analgesia”. Moreover, the “effect on response of SRIF” value in the series with Somatostatin receptors was “significant reduction; also recorded: decreased the maximal response”. In addition, the “response at the highest concentration compared with plateau” value in series [2] (30 µM, undepleted conditions) is “smaller response”.

As to `COc1ccc2c3c1O[C@H]1C(=O)CC[C@@]4(O)[C@@H](C2)N(C)CC[C@]314` [Oxycodone], the Operational tau is reported as 5.1 ± 0.2 in the series on rat µ receptor [1] and 13.9 ± 2 in series [2].
